# Results from patent US20090220528A1, “Stimulation of Toll-Like Receptors on T Cells” (THE TRUSTEES OF THE UNIVERISTY OF PENNSYLVANIA CNETER FOR …, priority 2005, published 2009).
# Tests used:
# Type in all cases: cell-based, mouse
# [1] = test system: activated CD4+ T cells; assay: NF-κB and MAP kinase signaling analysis (phospho-specific Western blot); details: anti-CD3/anti-CD28 activated BALB/c CD4+ T cells (FIG. 2)
# Protocol: BALB/c CD44^lowCD25^−CD4^+ T cells were activated with plate-bound 1.0 μg/ml anti-CD3 and 1.0 μg/ml anti-CD28 monoclonal antibodies for 16 hours, washed, and rested for 8 hours at 37° C. Activated (1.5×10^6) CD4^+ T cells were then treated with TLR ligands for the indicated times, lysed in 1×SDS loading buffer (Bio-Rad Life Sciences), resolved on a 12% bis-Tris SDS-PAGE gel (Life Technologies), transferred to nitrocellulose filters (Life Technologies), and either probed with rabbit anti-mouse phospho-specific Abs for p-IκBα, p-p38, p-extracellular signal-regulated kinase (ERK) 1/2, or p-C-Jun N-terminal kinase (JNK)/stress-activated protein kinase (SAPK). To assess total amounts of signaling molecules, filters were also probed with either rabbit anti-mouse IκBα, p-38, ERK-1/2, or JNK/SAPK antibodies. Detection was conducted with HRP-conjugated goat ant-rabbit antibodies, ECL reagent (Amersham), and X-OMAT Film (Kodak, Rochester, N.Y.). All antibodies were purchased from Cell Signal Technologies (Beverly, Mass.).
# TLR ligands induce the activation of nuclear factor NF-κB and MAP kinases in APCs (Akira, 2003, J. Biol. Chem. 278:38105; Martin et al., 2002 Biochem. Biophys. Acta. 1592:265). The next set of experiments were designed to assess whether TLR ligands could also induce NF-κB and MAP kinase activity in activated CD4^+ T cells (FIG. 2). […]
# [2] = test system: activated CD4+ T cells; assay: Survival of activated CD4+ T cells treated with TLR ligands (7-AAD/annexin exclusion)
# Protocol: All CD4^+ T cell activation was conducted in complete culture medium composed of RPMI 1640 (Life Technologies, Grand Island, N.Y.), 1.5 μM 2-ME (Sigma-Aldrich, St. Louis, Mo.), 50 μg/ml gentamicin (Life Technologies), and 10% FCS (Mediatech, Washington, D.C.) at 37° C. in 5% CO2. Purified CD4^+ T cells from either BALB/c, MyD88^−/−, or MyD88^+/+ wild-type control littermates were activated on 24-well plates (Costar, Cambridge, Mass.) coated with 1.0 μg/ml CD3ε monoclonal antibody (2C11; BD Biosciences) and 1.0 μg/ml CD28 monoclonal antibody (37.51; BD Biosciences) for 16 hours. In experiments with DO11.10 mice, 1 μg/ml of pOVA, a peptide derived from chicken albumin amino acid residues […] was added to 2×10^6/ml erythrocyte-depleted splenocyte and lymph node cell pools for 16 hours. Following pOVA-induced activation, CD4^+ T cell APC complexes were disrupted with 5 mM EDTA/PBS for 10 minutes at 25° C., washed twice in PBS, and purified with magnetic beads using the MACS CD4^+ T cell isolation kit as described elsewhere herein. Purity of activated DO11.10 CD4^+ T cells exceeded 96%. As described elsewhere herein, the remainder of the contaminants by FACS analysis were CD8^+ T cells, with APCs at <0.1% by RT-PCR.
# Following activation, purified CD4^+ T cells were washed twice in PBS and replated in culture medium at 10^6/ml. Cultures were left untreated or treated with either TLR ligands and/or inhibitors for indicated times and concentrations. Following incubation, CD4^+ T cells were washed twice in PBS/2% FBS and stained with CD4-allophycocyanin monoclonal antibody and 7-aminoactinomycin D (7-AAD; BD PharMingen) or annexin (BD PharMingen) and survival was assessed by exclusion of either of these two stains. For absolute live cell counts 50,000 CD45.1^+ splenocytes labeled with anti-CD45.1-PE monoclonal antibody (A20; BD PharMingen) were also added to stained CD4^+ T cell sample FACS tubes just before FACS analysis. Live CD4^+ T cell counts were calculated by taking the ratio of the number of CD4^+CD45.1^−7-ADD^− events collected to the number CD45.1^+ events collected and multiplying by 50,000. Proliferation was measured by CFSE dye dilution as previously described (Wells et al., 1997 J. Clin. Invest. 100:3173).
# TLR ligands directly promote the survival of several cell types including neutrophils, DC, and B cells (Lundqvist et al., 2002, Cancer Immunol. Immunother. 51:139; Sabroe et al., 2003, J. Immunol. 170:5268; Grillot et al., 1996, J. Exp. Med. 183:381; Grillot et al., 1996, J. Exp. Med. 183:381). Since it was observed that activated CD4^+ T cells also express TLRs and signal in response to TLR ligands, the next set of experiments were designed to assess whether TLR ligands could directly enhance survival of these cells. DO11.10 CD4^+ T cells, that encode a transgenic TCR specific for a peptide derived from chicken OVA (pOVA), were activated with pOVA-pulsed APCs for 16 hours ex vivo, purified by magnetic beads to remove all non-CD4^+ T cells, and replated in unsupplemented culture medium in the absence or presence of TLR ligands. Survival was then assessed 72 hours following activation (FIG. 3A). Poly(I:C) or CpG DNA induced increases of activated CD4^+ T cell survival from 38% to 71 and 73%, respectively.
# [3] = test system: activated CD4+ T cells; assay: Analysis of antiapoptotic molecules (Bcl-2 FACS; Bcl-xL, Bcl-3 Western blot)
# Protocol: For Bcl-2 evaluation, CD4^+ T cells were permeabilized with 0.1% saponin/0.2% FBS/PBS and stained with anti-Bcl-2 PE monoclonal antibody (3F-11; BD PharMingen) or an isotype hamster IgG-PE control (A19-3; BD PharMingen) and staining was analyzed by FACS. Bcl-xL, Bcl-3, and β-actin were analyzed by Western blotting using rabbit anti-mouse Abs specific for BCl-xL (BD Transduction Laboratories, Lexington, Ky.), Bcl-3 (Santa Cruz Biotechnology, Santa Cruz, Calif.), and β-actin (Accurate Labs, Westbury, N.Y.).
# Members of the Bcl family are mediators of activated CD4^+ T cell survival. […] Therefore, levels of each of these molecules were measured following TLR ligand treatment of activated CD4^+ T cells (FIGS. 4C and 4D). Bcl-2 protein levels were not changed by TLR ligand treatment relative to untreated activated CD4^+ T cell controls. Additionally, Bcl-3 protein levels were also left unaffected despite the fact that all of the TLR ligands used in the experiment are also used as adjuvants (Mitchell et al., 2001, Nat. Immunol. 2:397). […] Thus, directly mediated activated CD4^+ T cell survival is associated with specific BCl-xL up-regulation.
substance,measurement,setting,value
poly(I:C),NF-κB activity (phosphorylation of IκBα),[1],induce rapid NF-κB activity
same,"phosphorylation of p38 MAPK, ERK 1/2 and JNK/SAPK",[1],able to effect phosphorylation
same,activated CD4+ T cell survival,"[2]; 72 hours following activation, DO11.10 CD4+ T cells activated with pOVA-pulsed APCs, purified, untreated 38% (FIG. 3A)",71%
same,effect on activated CD4+ T cell survival (dose response),"[2]; FIG. 3B, purified activated CD4+ T cells",dose-dependent manner
same,activated CD4+ T cell survival in TLR ligand-treated cultures spiked with APCs,[2]; T cell-depleted lymph node cells and splenocytes (APC) added,significantly increased dose-responsive survival
same,Bcl-xL protein,[3]; over LPS-treated and untreated activated CD4+ T cells,significant increases
same,Bcl-3 protein levels,[3]; relative to untreated activated CD4+ T cell controls,not observed
